# Experimental data from patent publication US10189839B2, “Tricyclic imidazole compounds as inhibitors of tryptophan hydroxylase” (ACTELION PHARMACEUTICALS LTD, priority 2013, dated 2019).
# Target: T1, full length human TPH1 (Homo sapiens, UniProt P17752)
# T1 construct: To generate the enzyme, full length human TPH1 is cloned into the plasmid pET20b(+); made in house; host or cells: E. coli
# T1 sequence (P17752 1-444): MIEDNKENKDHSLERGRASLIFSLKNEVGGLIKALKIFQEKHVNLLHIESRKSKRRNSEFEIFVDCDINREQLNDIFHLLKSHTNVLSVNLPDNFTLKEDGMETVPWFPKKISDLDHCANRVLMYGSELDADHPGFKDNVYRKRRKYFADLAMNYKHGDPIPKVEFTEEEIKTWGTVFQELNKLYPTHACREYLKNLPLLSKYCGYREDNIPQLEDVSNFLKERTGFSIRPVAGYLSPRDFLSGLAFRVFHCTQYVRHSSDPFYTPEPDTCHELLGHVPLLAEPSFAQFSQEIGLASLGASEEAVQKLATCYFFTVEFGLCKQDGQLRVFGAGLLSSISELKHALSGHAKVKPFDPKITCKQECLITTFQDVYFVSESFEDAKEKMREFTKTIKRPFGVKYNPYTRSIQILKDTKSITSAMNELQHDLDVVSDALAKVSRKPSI
# Experiment: Biochemical in vitro assay using fluorescence readout (TPH1 enzyme activity)
# Details: Table 1, mean where determined several times
# Method in brief: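 IC50 (mean of repeats) derived from 5-hydroxy-L-tryptophan fluorescence at 540 nm (300 nm excitation) relative to vehicle, after perchloric acid stop. Reaction: 60 min, 15° C., pH 7.6 Tris-HCl, 40 μM L-tryptophan, 100 μM 6-methyltetrahydropterine, DTT, catalase, with 40-80 nM purified full-length human TPH1 from E. coli.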
row,SMILES,IC50 [nM]
1,"CCc1nc(C)ccc1OCC(=O)N1CCc2nc3n(c2C1c1ccc(Cl)cc1F)CCCC3 (centres unmarked) [Example 1.1.15, 1-(1-(4-chloro-2-fluorophenyl)-3,4,6,7,8,9-hexahydroimidazo[1,2-a:5,4-c′]dipyridin-2(1H)-yl)-2-((2-ethyl-6-methylpyridin-3-yl)oxy)ethanone]",39
2,"COCc1ccc(C2c3c(nc4n3CCCC4)CCN2C(=O)COc2ccc(C(=O)NC3CC3)nc2Cl)c(F)c1 (centres unmarked) [Example 1.26.1, 6-chloro-N-cyclopropyl-5-(2-(1-(2-fluoro-4-(methoxymethyl)phenyl)-3,4,6,7,8,9-hexahydroimidazo[1,2-a:5,4-c′]dipyridin-2(1H)-yl)-2-oxoethoxy)picolinamide]",19
3,"CC(=O)N1CCn2c(nc3c2C(c2ncccc2F)N(C(=O)COc2ccc(N4CCOCC4)nc2Cl)CC3)C1 (centres unmarked) [Example 5.10.1, 1-(7-acetyl-1-(3-fluoropyridin-2-yl)-3,4,6,7,8,9-hexahydropyrido[4′,3′:4,5]imidazo[1,2-a]pyrazin-2(1H)-yl)-2-((2-chloro-6-morpholinopyridin-3-yl)oxy)ethanone]",14
4,"CN(C)C(=O)c1ccc(OCC(=O)N2CCc3nc4n(c3C2c2ccc(C3CC3)cc2F)CCOC4)c(Cl)n1 (centres unmarked) [Example 6.2.3, 6-chloro-5-(2-(6-(4-cyclopropyl-2-fluorophenyl)-3,4,8,9-tetrahydro-1H-pyrido[4′,3′:4,5]imidazo[2,1-c][1,4]oxazin-7(6H)-yl)-2-oxoethoxy)-N,N-dimethylpicolinamide]",3
5,"CCc1nc(NS(C)(=O)=O)ccc1OCC(=O)N1CCc2nc3n(c2C1c1cnc(C)s1)CCCC3 (centres unmarked) [Example 1.15.1, N-(6-ethyl-5-(2-(1-(2-methylthiazol-5-yl)-3,4,6,7,8,9-hexahydroimidazo[1,2-a:5,4-c′]dipyridin-2(1H)-yl)-2-oxoethoxy)pyridin-2-yl)methanesulfonamide]",36
6,"CS(=O)(=O)Nc1ccc(OCC(=O)N2CCc3nc4n(c3C2c2ccc(Cl)cc2F)CCCC4)c(C2CC2)n1 (centres unmarked) [Example 1.1.20, N-(5-(2-(1-(4-chloro-2-fluorophenyl)-3,4,6,7,8,9-hexahydroimidazo[1,2-a:5,4-c′]dipyridin-2(1H)-yl)-2-oxoethoxy)-6-cyclopropylpyridin-2-yl)methanesulfonamide]",21
7,"O=C(NC1CC1)c1ccc(OCC(=O)N2CCc3nc4n(c3C2c2ccc(OC(F)(F)F)cc2F)CCCC4)c(Cl)n1 (centres unmarked) [Example 1.20.1, 6-chloro-N-cyclopropyl-5-(2-(1-(2-fluoro-4-(trifluoromethoxy)phenyl)-3,4,6,7,8,9-hexahydroimidazo[1,2-a:5,4-c′]dipyridin-2(1H)-yl)-2-oxoethoxy)picolinamide]",26
8,"CN(C)C(=O)c1ccc(OCC(=O)N2CCc3nc4n(c3C2c2sccc2F)CCS4)c(Cl)n1 (centres unmarked) [Example 4.6.1, 6-chloro-5-(2-(5-(3-fluorothiophen-2-yl)-2,3,7,8-tetrahydrothiazolo[2′,3′:2,3]imidazo[4,5-c]pyridin-6(5H)-yl)-2-oxoethoxy)-N,N-dimethylpicolinamide]",28
9,"CC(=O)N1CCn2c(nc3c2C(c2ncc(C4CC4)cc2F)N(C(=O)COc2ccc(N4CCOCC4)nc2F)CC3)C1 (centres unmarked) [Example 5.4.8, 1-(7-acetyl-1-(5-cyclopropyl-3-fluoropyridin-2-yl)-3,4,6,7,8,9-hexahydropyrido[4′,3′:4,5]imidazo[1,2-a]pyrazin-2(1H)-yl)-2-((2-fluoro-6-morpholinopyridin-3-yl)oxy)ethanone]",91
10,"CCc1nc(C)c(C2c3c(nc4n3CCCC4)CCN2C(=O)COc2ccc(NS(C)(=O)=O)nc2Cl)s1 (centres unmarked) [Example 1.11.1, N-(6-chloro-5-(2-(1-(2-ethyl-4-methylthiazol-5-yl)-3,4,6,7,8,9-hexahydroimidazo[1,2-a:5,4-c′]dipyridin-2(1H)-yl)-2-oxoethoxy)pyridin-2-yl)methanesulfonamide]",49

# More lines, in order of falling IC50, values ahead:
row,IC50 [nM],SMILES
1,456,"O=C(COc1cccnc1C(F)(F)F)N1CCc2nc3n(c2C1c1ncc(C2CC2)cc1F)CCNC3 (centres unmarked) [Example 5.4.2, 1-(1-(5-cyclopropyl-3-fluoropyridin-2-yl)-3,4,6,7,8,9-hexahydropyrido[4′,3′:4,5]imidazo[1,2-a]pyrazin-2(1H)-yl)-2-((2-(trifluoromethyl)pyridin-3-yl)oxy)ethanone]"
2,143,"CCc1cc(Cl)ccc1OCC(=O)N1CCc2nc3n(c2C1c1ncc(C2CC2)cc1F)CCNC3 (centres unmarked) [Example 5.4.5, 2-(4-chloro-2-ethylphenoxy)-1-(1-(5-cyclopropyl-3-fluoropyridin-2-yl)-3,4,6,7,8,9-hexahydropyrido[4′,3′:4,5]imidazo[1,2-a]pyrazin-2(1H)-yl)ethanone]"
3,131,"CC(C)(O)c1ccc(C2c3c(nc4n3CCCC4)CCN2C(=O)COc2ccc(NS(C)(=O)=O)nc2Cl)c(F)c1 (centres unmarked) [Example 1.24.2, N-(6-chloro-5-(2-(1-(2-fluoro-4-(2-hydroxypropan-2-yl)phenyl)-3,4,6,7,8,9-hexahydroimidazo[1,2-a:5,4-c′]dipyridin-2(1H)-yl)-2-oxoethoxy)pyridin-2-yl)methanesulfonamide]"
4,113,"Cc1cc(F)cnc1C1c2c(nc3n2CCCC3)CCN1C(=O)COc1ccc(NS(C)(=O)=O)nc1Cl (centres unmarked) [Example 1.19.1, N-(6-chloro-5-(2-(1-(5-fluoro-3-methylpyridin-2-yl)-3,4,6,7,8,9-hexahydroimidazo[1,2-a:5,4-c′]dipyridin-2(1H)-yl)-2-oxoethoxy)pyridin-2-yl)methanesulfonamide]"
5,87,"Cc1ccc(C2c3c(nc4n3CCCC4)CCN2C(=O)COc2ccc(C(F)(F)F)cc2Cl)c(F)c1F (centres unmarked) [Example 1.9.5, 2-(2-chloro-4-(trifluoromethyl)phenoxy)-1-(1-(2,3-difluoro-4-methylphenyl)-3,4,6,7,8,9-hexahydroimidazo[1,2-a:5,4-c′]dipyridin-2(1H)-yl)ethanone]"
6,58,"CS(=O)(=O)Nc1ccc(OCC(=O)N2CCc3nc4n(c3C2c2sccc2F)CCS4)c(Cl)n1 (centres unmarked) [Example 4.6.2, N-(6-chloro-5-(2-(5-(3-fluorothiophen-2-yl)-2,3,7,8-tetrahydrothiazolo[2′,3′:2,3]imidazo[4,5-c]pyridin-6(5H)-yl)-2-oxoethoxy)pyridin-2-yl)methanesulfonamide]"
7,41,"Cc1cnc(C2c3c(nc4n3CCCC4)CCN2C(=O)COc2ccc(-c3ncco3)nc2Cl)c(F)c1 (centres unmarked) [Example 1.6.2, 2-((2-chloro-6-(oxazol-2-yl)pyridin-3-yl)oxy)-1-(1-(3-fluoro-5-methylpyridin-2-yl)-3,4,6,7,8,9-hexahydroimidazo[1,2-a:5,4-c′]dipyridin-2(1H)-yl)ethanone]"
8,37,"CC(=O)N1CCn2c(nc3c2C(c2cnc(N(C)C)s2)N(C(=O)COc2ccc(N4CCOCC4)nc2Cl)CC3)C1 (centres unmarked) [Example 5.6.2, 1-(7-acetyl-1-(2-(dimethylamino)thiazol-5-yl)-3,4,6,7,8,9-hexahydropyrido[4′,3′:4,5]imidazo[1,2-a]pyrazin-2(1H)-yl)-2-((2-chloro-6-morpholinopyridin-3-yl)oxy)ethanone]"
9,11,"Cc1ccc(C2c3c(nc4n3CCCC4)CCN2C(=O)COc2ccc(-c3ncco3)nc2Cl)c(F)c1 (centres unmarked) [Example 1.2.2, 2-((2-chloro-6-(oxazol-2-yl)pyridin-3-yl)oxy)-1-(1-(2-fluoro-4-methylphenyl)-3,4,6,7,8,9-hexahydroimi-dazo[1,2-a:5,4-c′]dipyridin-2(1H)-yl)ethanone]"
10,8,"CCc1nc(NS(C)(=O)=O)ccc1OCC(=O)N1CCc2nc3n(c2C1c1ccc(C)c(F)c1F)CCC3 (centres unmarked) [Example 2.3.1, N-(5-(2-(1-(2,3-difluoro-4-methylphenyl)-3,4,7,8-tetrahydro-1H-pyrrolo[2′,1′:2,3]imidazo[4,5-c]pyridin-2(6H)-yl)-2-oxoethoxy)-6-ethylpyridin-2-yl)methanesulfonamide]"
11,8,"CCc1nc(NS(C)(=O)=O)ccc1OCC(=O)N1CCc2nc3n(c2C1c1ccc(Cl)cc1F)CCCC3 (centres unmarked) [Example 1.1.11, N-(5-(2-(1-(4-chloro-2-fluorophenyl)-3,4,6,7,8,9-hexahydroimidazo[1,2-a:5,4-c′]dipyridin-2(1H)-yl)-2-oxoethoxy)-6-ethylpyridin-2-yl)methanesulfonamide]"
12,7,"Cc1ccc(C2c3c(nc4n3CCOC4)CCN2C(=O)COc2ccc(C(=O)N(C)C)nc2Cl)c(F)c1 (centres unmarked) [Example 6.5.1, 6-chloro-5-(2-(6-(2-fluoro-4-methylphenyl)-3,4,8,9-tetrahydro-1H-pyrido[4′,3′:4,5]imidazo[2,1-c][1,4]oxazin-7(6H)-yl)-2-oxoethoxy)-N,N-dimethylpicolinamide]"
13,6,"CC(=O)N1CCn2c(nc3c2C(c2ccc(C4CC4)cc2F)N(C(=O)COc2ccc(N4CC(F)(F)C4)nc2Cl)CC3)C1 (centres unmarked) [Example 5.2.12, 1-(7-acetyl-1-(4-cyclopropyl-2-fluorophenyl)-3,4,6,7,8,9-hexahydropyrido[4′,3′:4,5]imidazo[1,2-a]pyrazin-2(1H)-yl)-2-((2-chloro-6-(3,3-difluoroazetidin-1-yl)pyridin-3-yl)oxy)ethanone]"
